Values of other authors as cited in patent publication US11692003B2, “Mithramycin derivatives having increased selectivity and anti-cancer activity” (University of Kentucky Research Foundation, priority 2018, dated 2023).

System: several cancer cell lines

| Structure (SMILES) | activity against several cancer cell lines compared to the parent MTM |
| --- | --- |
| CO[C@H](C(=O)C(C)=O)[C@@H]1Cc2cc3cc(OC4C[C@@H](OC5C[C@@H](O)[C@H](O)C(C)O5)[C@H](O)C(C)O4)c(C)c(O)c3c(O)c2C(=O)[C@H]1OC1C[C@@H](OC2C[C@@H](OC3C[C@](C)(O)[C@H](O)C(C)O3)[C@@H](O)C(C)O2)[C@H](O)C(C)O1 (some centres unmarked) [MTM SDK, mithramycin SDK] | increased activity |
| CO[C@H](C(O)C(C)=O)[C@@H]1Cc2cc3cc(OC4C[C@@H](OC5C[C@@H](O)[C@H](O)C(C)O5)[C@H](O)C(C)O4)c(C)c(O)c3c(O)c2C(=O)[C@H]1OC1C[C@@H](OC2C[C@@H](OC3C[C@](C)(O)[C@H](O)C(C)O3)[C@@H](O)C(C)O2)[C@H](O)C(C)O1 (some centres unmarked) [MTM SK, Mithramycin SK] | increased activity |
